Results on 8 compounds are retold here after article PMC8219027, “A small-molecule inhibitor of the BRCA2-RAD51 interaction modulates RAD51 assembly and potentiates DNA damage-induced cell death” (Cell Chemical Biology, 2021).

Data set [1] relates to HCT116 cells (BRCA2 wild-type). The data set can be described thus: SRB growth inhibition assay, combination of CAM833 and PARP1 inhibitor AZD2461. Format: cell-based, human. Conditions: HCT116, fixed dose 0.1 μM or 1 μM, 96 h. As for the experimental part:
(§1) Adherent cell lines (HCT116 and A549 cells) were seeded into flat-bottomed tissue culture 96-well plates in a volume of 150 μL of growth medium. HCT116 cells were seeded at 750 cells per well and A549 cells were seeded at 1000 cells per well. After 24 hours, compounds dissolved in DMSO were diluted in growth medium and were added to cells such that the final DMSO concentration was 1% (v/v) and the final volume in the well was 200 μL. Cells were then incubated in the presence of compound for 96 hours before fixation.
(§2) Medium was removed from cells and 100 μL of cold 1% (v/v) trichloroacetic acid was added for 30 minutes at 4 degrees. The plates were washed three times in tap water and left to dry at room temperature. The fixed cells were stained in a 0.057% sulphorodamine B/1% acetic acid solution (w/v) and incubated at room temperature with agitation for 30 minutes after which the dye was removed and the plates washed in 1% (v/v) acetic acid and left to dry. The dye was then solubilised in 10 mM Tris solution (pH8) and incubated for 30 minutes under agitation. The plates were then read on a PHERAstar plus plate reader (BMG Labtech) using the fluorescence intensity module (540-590 nm). Growth inhibition was calculated relative to DMSO controls and GI50 values were calculated using Graphpad Prism.
For the PARP inhibitor experiments, the SRB method was used as described above to measure growth inhibition with the exception that cells were seeded into 150 μl medium and then a combination of either 25 μl of CAM833, AZD2461 (SelleckChem; #S7029) or DMSO was added to give a total volume of 200 ul in the well.

In the next data set the test system is HCT116 cells. The data set can be described thus: SRB growth inhibition assay. Format: cell-based, human. Conditions: SRB 96 h, Figure 6D (cell line not given). The procedure: as §1, §2
Data set [2] addresses T1, HumRadA2 (Pyrococcus furiosus, UniProt O74036, D220A/E219S/I169M/K221M/V202Y/Y201A). The data set can be described thus: Isothermal titration calorimetry (ITC) against HumRadA2. Format: binding, Pyrococcus furiosus (humanised RadA). As for the experimental part:
ITC was performed using a Microcal iTC200 instrument at 25°C. Experiments typically involved titrating a 10-fold excess of ligand in the injection syringe against the protein ([HumRadA2] = 60 μM or [ChimRAD51] = 20 μM) in either 200 mM Tris buffer at pH 7.5 and 100 mM NaCl (HumRadA2) or 20 mM potassium phosphate at pH 8.0 and 192 mM KCl (ChimRAD51). Titrations were typically performed with 5-10% DMSO and care was taken to ensure that the DMSO concentrations in the protein and ligand solutions were well matched. The raw ITC data were fitted using a single-site binding model in Microcal ITC LLC data analysis program in the Origin 7.0 package to derive the dissociation constant, stoichiometry and ΔH of binding. […]

A further data set can be described thus: Aqueous solubility. The note with it: for profiling in cell-based assays.
The target of data set [3] is T1, HumRadA2. Conditions: ref Scott et al., 2016; read-out: Kd against HumRadA2 by ITC; cited from earlier work.
The target of data set [4] is ChimRAD51. More on the design: method as in Moschetti et al., 2016. The note with it: direct binding of BRC4 peptide; ref Moschetti et al., 2016; read-out: Kd of binding to ChimRAD51 by FP; cited from earlier work.
Data set [5] concerns the target ChimRAD51. Also on record: method as in Moschetti et al., 2016. The note with it: ref Moschetti et al., 2016; read-out: Kd of binding to ChimRAD51 by ITC; cited from earlier work. (In ITC the heat of successive injections is recorded.)
Data set [6] concerns the target ChimRAD51 (chimeric RAD51/RadA protein) (Pyrococcus furiosus | human). Description: fluorescence polarisation; competition: 10 nM Alexa Fluor 488-labelled BRC4 peptide and 50 nM ChimRAD51 (about 80-90% saturation), increasing concentration of competitor; isotherms fitted with the expression of Wang (1995).

Like-named read-outs stand apart in the source and are kept apart here.

On to `COC1CCN(C(=O)c2cc(Cc3n[nH]c(=O)c4ccccc34)ccc2F)CC1` [AZD2461, reference compound], for which, in data set [1], the “growth inhibition by AZD2461 alone (in words)” value was “little effect”.

What is called IC50 is the concentration that inhibits the measured activity by half. For `N.N.O=C([O-])C1(C(=O)[O-])CCC1.[Pt+2]` [Carboplatin, reference compound], the IC50 worked out at 9.9 µM with HCT116 cells (0 Gy IR), 9 µM in the data set on HCT116 cells (1 Gy IR), 10.6 µM in the data set with HCT116 cells (2 Gy IR) and 11.1 µM in the data set on HCT116 cells (3 Gy IR).

What is called Kd is the concentration at which binding is half-saturated. Compound `Nc1cc2ccccc2cc1C(=O)O` [Compound 3, 3-amino-2-naphthoic acid] showed a Kd on HumRadA2 [2] of 1300 µM.

In the case of `C[C@H](NC(=O)[C@@H]1CCCN1C(=O)[C@H](Cc1c[nH]cn1)NC(=O)c1cc2ccccc2cc1N)C(N)=O` [Compound 4], binding on HumRadA2 [2] was characterised by a dissociation constant (Kd) of 3 µM.

Compound `C[C@H](NC(=O)c1ccc2ccccc2c1)C(=O)N1CCC[C@H]1C(=O)N[C@@H](C)c1ccccc1` [Compound 5, (S)-1-((2-Naphthoyl)-L-alanyl)-N-((S)-1-phenylethyl)pyrrolidine-2-carboxamide] returned a Kd on HumRadA2 [2] of 0.22 µM. The “solubility in aqueous media (in words)” value in the data set “Aqueous solubility” was “too insoluble”.

Turning to Ac-FHTA-NH2 [Compound 1], the Kd at HumRadA2 [3] was 280 µM.

“BRC4 peptide: BRC4 repeat peptide of BRCA2 (CKEPTLLGFHTASGKKVKIAKESLDKVKNLFDEKEQ; Alexa Fluor 488 (maleimide dye) on the additional N-terminal cysteine)”: the Kd is 0.004 µM with ChimRAD51 [4] and 0.006 µM with ChimRAD51 [5].

As to “N-terminal "FxxA" half of the BRC4 repeat (FxxA half-peptide)”, the Kd in data set [6] was determined as 36 µM.
